Experimental data: US7671045B2, “17-phosphorous steroid derivatives useful as progesterone receptor modulators” (Janssen Pharmaceutica N.V., priority 2006, dated 2010)
Like-named read-outs stand apart in the source and are kept apart here.

Key:
[1] = system: T47D human breast cancer cells; assay: Alkaline phosphatase assay in human breast cancer cell line T47D; type: cell-based
Protocol: Alkaline Phosphatase Assay in Human Breast Cancer Cell Line T47D
T47D human breast cancer cells were grown in RPMI medium without phenol red (Invitrogen) containing 10% (v/v) heat-inactivated fetal bovine serum (FBS; Hyclone), 1% (v/v) penicillin-streptomycin (Invitrogen), 1% (w/v) glutamine (Invitrogen), and […] insulin (Sigma). Incubation conditions were 37° C. in a humidified 5% (v/v) carbon dioxide environment.
The cells were plated in 96-well tissue culture plates at 10,000 cells per well in assay medium [RPMI medium without phenol red (Invitrogen) containing 5% (v/v) charcoal-treated FBS (Hyclone) and 1% (v/v) penicillin-streptomycin (Invitrogen)]. Two days later, the medium was decanted and test compound or control were added at a final concentration of 0.1% (v/v) dimethyl sulfoxide in fresh assay medium. Twenty-four hours later, an alkaline phosphatase assay was performed using a SEAP kit (BD Biosciences Clontech, Palo Alto, Calif.). Briefly, the medium was decanted and the cells were fixed for 30 minutes at room temperature with 5% (v/v) formalin (Sigma). The cells were washed once with room temperature Hank's buffered saline solution (Invitrogen). Equal volumes (0.05 mL) of 1× Dilution Buffer, Assay Buffer and 1:20 substrate/enhancer mixture were then added. After 1 hour incubation at room temperature in the dark, the lysate was transferred to a white 96-well plate (Dynex) and luminescence was read using a LuminoSkan Ascent (Thermo Electron, Woburn, Mass.).

[2] = system: A549 Human lung carcinoma cells; assay: Transient transfection and Steady Glo luciferase assay in A549 cells with dexamethasone challenge; type: cell-based
Protocol: Transient Transfection and Steady Glo Luciferase Assay
A549 Human lung carcinoma cells were grown in F-12K Nutrient Mixture containing 10% (v/v) fetal bovine serum (FBS; Invitrogen), 2 mM glutamine and 0.15% […] (Invitrogen)
A549 cells were split 1 to 3 in 175 cm tissue culture flask. The cells were incubated at 37° C. in CO2 incubator until the cells were 95% confluent (typically 24-30 hours).
The following solutions were prepared in sterile tubes: (a) Solution A: 1.5 μg/ml of DNA in 8.5 ml OPTI-MEM I Reduced Serum Medium. (GIBCO cat# 31985) and (b) Solution B: 6 μl/ml of DMRIE-C Reagent into […] OPTI-MEM I. The two solutions were combined and mixed gently, then incubated at room temperature for 40 minutes.
The A549 cells prepared above were washed with […] of OPTI-MEM I. The medium was removed and 17 ml of the lipid-DNA complex solution was overlayed onto cells. The cells ere then incubated for 16 h at 37° C. in CO2 incubator. The DNA-containing medium was removed and 30 ml of growth medium was added. (5% Charcoal treated FBS) After 5-6 h, the cells were seeded in a 96 well plate and the cells incubated overnight at 37° C. in CO2 incubator.
To each well was then added 5 μl of test compounds and the cells incubated at 37° C. for 10 min. 5 μL of dexamathasone (CAS [50-02-2]), a glucocorticoid agonist, solution was then added to each well for challenger and the cells incubated at 37° C. in CO2 incubator for 24 h. 100 μl of Luc-assay buffer was then added into each cell well and the cells incubated for 30 min at room temperature. A 150 μL sample from each well was then transferred into a DYNEX Microlitel plate and read on Top-counter.

[3] = T47D cells, alkaline phosphatase readout, 24 h with test compound, read-out: T47D IC50
[4] = transfected A549 cells, luciferase readout, challenged with dexamethasone (glucocorticoid agonist), 24 h, read-out: A549 IC50
[5] = T47D, 24 h, read-out: T47D IC50 (nM)
[6] = A549, 24 h, read-out: A549 IC50 (nM)

| SMILES | IC50 [1, 3] | IC50 [2, 4] | IC50 [1, 5] | IC50 [2, 6] |
| --- | --- | --- | --- | --- |
| CC#C[C@]1(O)CC[C@H]2[C@@H]3CCC4=CC(=O)CCC4=C3[C@@H](c3ccc(P(=O)(c4ccccc4)c4ccccc4)cc3)C[C@@]21C [Compound 27] | 381 nM | 16.6 nM |  |  |
| COP(=S)(C#C[C@]1(O)CC[C@H]2[C@@H]3CCC4=CC(=O)CCC4=C3[C@@H](c3ccc(N(C)C)cc3)C[C@@]21C)OC [Compound 105] |  |  | 1.44 nM | 55.8 nM |
| C=C(C)[C@]1(O)CC[C@H]2[C@@H]3CCC4=CC(=O)CCC4=C3[C@@H](c3ccc(P(=O)(OCC)OCC)cc3)C[C@@]21C [Compound 11] |  |  | 51.3 nM | 66.3 nM |
| C[C@]12C[C@H](c3ccc(P(C)(C)=O)cc3)C3=C4CCC(=O)C=C4CC[C@H]3[C@@H]1CCC2=O [Compound 2] | > 1000 nM | > 710 nM |  |  |
| CN(C)c1ccc([C@H]2C[C@@]3(C)[C@@H](CC[C@@]3(O)C#CP(C)(C)=O)[C@@H]3CCC4=CC(=O)CCC4=C32)cc1 [Compound 102] | 7.3 nM | 70.4 nM |  |  |
| C=CC[C@]1(O)CC[C@H]2[C@@H]3CCC4=CC(=O)CCC4=C3[C@@H](c3ccc(P(=O)(c4ccccc4)c4ccccc4)cc3)C[C@@]21C [Compound 24] | 762 nM | 48.2 nM |  |  |
